Here are results for 20 molecules from patent US10556905B2, “Processes for preparing a diazabicyclooctane compound” (priority 2012, dated 2020).

One assay deals with T1, AmpC (Pseudomonas aeruginosa, UniProt P24735).
T1 construct: AmpC, TEM-1, KPC-2 or OXA-2 domain excluding signal peptide was amplified with PCR; made in house; host or cells: Escherichia coli BL21 (DE3), pET-28b(+)
The assay is described as follows: biochemical.

Another assay concerns the target T2, TEM-1 (Escherichia coli, UniProt P62593).
T2 construct: AmpC, TEM-1, KPC-2 or OXA-2 domain excluding signal peptide was amplified with PCR; made in house; host or cells: Escherichia coli BL21 (DE3), pET-28b(+)
Nature of the assay: β-Lactamase inhibitory activity (nitrocefin hydrolysis), TEM-1. It counts as biochemical. Conditions: TEM-1 0.1 nM, 100 μM nitrocefin, pre-incubation 30° C. 10 minutes. On the procedure:
Using Pseudomonas aeruginosa ATCCBAA-47 genome, plasmid pBR322, Klebsiella pneumoniae ATCCBAA-1705, and P. aeruginosa MSC17696 as a template, each DNA for encoding β-lactamase, AmpC, TEM-1, KPC-2 or OXA-2 domain excluding signal peptide was amplified with PCR. Each of the PCR product was incorporated into pET-28b(+)vector (Merck), introduced into Escherichia coli BL21 (DE3) (Merck), and, under induction of 1 mM isopropyl-β-D-(−)-thiogalactopyranoside (Nacalai Tesque), cultured overnight at 20° C. to express AmpC, TEM-1, KPC-2, and OXA-2. After the bacterial cell was collected, AmpC was purified from the cell extract obtained by ultrasonic treatment, using CM Sepharose Fast Flow (GE Healthcare) and HiTrap Heparin HP (GE Healthcare) at 4° C. TEM-1 was purified with HiTrap SPHP (GE Healthcare), HiTrap Q (GE Healthcare) and Mono Q (GE Healthcare), and KPC-2 was purified with HiTrap SPHP. OXA-2 was purified with HiTrap SPHP and HiTrap Heparin HP.
For the measurement of β-lactamase inhibitory activity, 100 μM (final concentration) nitrocefin (Oxoid) was used as a substrate, and 2.5% DMSO, 10 μg/mL bovine serum derived albumin (Sigma-Aldrich) and 50 mM phosphate buffer at pH 7.0 were used as a reaction solution. […] Nitrocefin was added to each well to be mixed therein, followed by incubation at 30° C. for 20 minutes, and Multiscan Ascent (Thermo Fisher Scientific) was used to measure 492 nm wavelength, thereby measuring nitrocefin hydrolytic activity of β-Lactamase, to determine enzyme inhibitory activity. […] As the inhibitory activity strength, less than 0.1 μM, less than 1 μM, less than 3 μM, less than 10 μM, and 10 μM or more were shown with A, B, C, D, and E respectively.

In the next assay the target is T3, KPC-2 (Klebsiella pneumoniae, UniProt Q9F663).
T3 construct: AmpC, TEM-1, KPC-2 or OXA-2 domain excluding signal peptide was amplified with PCR; made in house; host or cells: Escherichia coli BL21 (DE3), pET-28b(+)
T3 sequence (Q9F663 25-293, looked up): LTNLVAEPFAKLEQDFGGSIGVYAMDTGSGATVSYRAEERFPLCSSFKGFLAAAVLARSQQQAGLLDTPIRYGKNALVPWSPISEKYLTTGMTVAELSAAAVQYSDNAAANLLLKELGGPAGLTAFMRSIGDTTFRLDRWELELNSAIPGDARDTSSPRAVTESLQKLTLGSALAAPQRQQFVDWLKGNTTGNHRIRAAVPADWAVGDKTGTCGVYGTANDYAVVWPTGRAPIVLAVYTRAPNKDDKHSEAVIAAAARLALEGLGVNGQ
The assay is described as follows: β-Lactamase inhibitory activity (nitrocefin hydrolysis), KPC-2. The format is biochemical. Conditions: KPC-2 0.5 nM, 100 μM nitrocefin, pre-incubation 30° C. 10 minutes.

Another assay has as its target T4, OXA-2 (Escherichia coli, UniProt P0A1V9).
T4 construct: AmpC, TEM-1, KPC-2 or OXA-2 domain excluding signal peptide was amplified with PCR; made in house; host or cells: Escherichia coli BL21 (DE3), pET-28b(+)
The assay is described as follows: biochemical. On the set-up: species or system P. aeruginosa.

Setting [1] is: OXA-2 2 nM, 100 μM nitrocefin, pre-incubation 30° C. 10 minutes, read-out: β-Lactamase inhibitory activity OXA-2 (IC50).

pIC50: −log10 of the molar value. Read-outs that look alike come from different tables or passages of the source.

T1 sequence (P24735 27-397): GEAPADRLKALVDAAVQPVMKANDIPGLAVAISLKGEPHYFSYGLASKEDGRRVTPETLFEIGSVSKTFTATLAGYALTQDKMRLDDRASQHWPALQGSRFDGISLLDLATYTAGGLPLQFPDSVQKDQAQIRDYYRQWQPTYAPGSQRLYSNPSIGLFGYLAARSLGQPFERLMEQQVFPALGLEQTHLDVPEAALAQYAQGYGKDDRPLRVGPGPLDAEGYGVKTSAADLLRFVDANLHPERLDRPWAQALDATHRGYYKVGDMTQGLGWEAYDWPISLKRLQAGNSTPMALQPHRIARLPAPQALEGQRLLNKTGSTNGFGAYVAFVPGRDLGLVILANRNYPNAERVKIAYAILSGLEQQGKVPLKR
T4 sequence (P0A1V9 22-275): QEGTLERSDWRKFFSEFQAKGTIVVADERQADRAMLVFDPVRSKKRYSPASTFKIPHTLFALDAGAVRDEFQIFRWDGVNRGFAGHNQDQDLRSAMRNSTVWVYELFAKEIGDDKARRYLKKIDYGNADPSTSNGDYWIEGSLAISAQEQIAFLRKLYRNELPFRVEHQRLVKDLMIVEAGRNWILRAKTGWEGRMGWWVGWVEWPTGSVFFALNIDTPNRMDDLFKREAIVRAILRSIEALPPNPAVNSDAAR
T2 sequence (P62593 24-286 limits assumed): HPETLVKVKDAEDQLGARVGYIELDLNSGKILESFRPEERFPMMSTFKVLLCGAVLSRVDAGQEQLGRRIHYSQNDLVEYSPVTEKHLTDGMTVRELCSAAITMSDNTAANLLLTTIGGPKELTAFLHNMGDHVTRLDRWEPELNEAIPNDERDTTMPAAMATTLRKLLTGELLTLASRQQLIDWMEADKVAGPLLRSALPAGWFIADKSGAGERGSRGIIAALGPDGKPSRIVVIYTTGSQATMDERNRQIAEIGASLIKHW

As a reminder, the pIC50 is the IC50 on a negative log10 scale, so that one unit is a factor of ten. On to `O=C(NNC(=O)N1CCOCC1)[C@@H]1CC[C@@H]2CN1C(=O)N2OS(=O)(=O)O` [Example 50, Sodium (2S,5R)—N′-(morpholin-4-ylcarbonyl)-7-oxo-6-(sulfooxy)-1,6-diazabicyclo[3.2.1]octane-2-carbohydrazide], for which the pIC50 against AmpC was > 7.00; against TEM-1, 6.00 to 7.00; against KPC-2 it was 6.00 to 7.00; at OXA-2, 5.00 to 5.52.
Consider `COC(=O)NNC(=O)[C@@H]1CC[C@@H]2CN1C(=O)N2OS(=O)(=O)O` [Example 51, Sodium methyl 2-{[(2S,5R)-7-oxo-6-(sulfooxy)-1,6-diazabicyclo[3.2.1]oct-2-yl]carbonyl}hydrazinecarboxylate], for which the pIC50 on AmpC is 6.00 to 7.00; at TEM-1, > 7.00; on KPC-2 it was 6.00 to 7.00; on OXA-2, 5.52 to 6.00.
Regarding `CCOC(=O)NNC(=O)[C@@H]1CC[C@@H]2CN1C(=O)N2OS(=O)(=O)O` [Example 52, Sodium ethyl 2-{[(2S,5R)-7-oxo-6-(sulfooxy)-1,6-diazabicyclo[3.2.1]oct-2-yl]carbonyl}hydrazinecarboxylate], the pIC50 on AmpC was 6.00 to 7.00; against TEM-1, > 7.00; at KPC-2 it was 6.00 to 7.00; against OXA-2, 5.52 to 6.00.
In the case of `CS(=O)(=O)NNC(=O)[C@@H]1CC[C@@H]2CN1C(=O)N2OS(=O)(=O)O` [Example 54, Sodium (2S,5R)—N′-(methylsulfonyl)-7-oxo-6-(sulfooxy)-1,6-diazabicyclo[3.2.1]octane-2-carbohydrazide], the pIC50 is > 7.00 against AmpC, > 7.00 against TEM-1, 6.00 to 7.00 on KPC-2 and 6.00 to 7.00 at OXA-2.
For `CONC(=O)[C@@H]1CC[C@@H]2CN1C(=O)N2OS(=O)(=O)O` [Example 56, Sodium (2S,5R)—N-methoxy-7-oxo-6-(sulfooxy)-1,6-diazabicyclo[3.2.1]octane-2-carboxamide], the pIC50 against AmpC was 6.00 to 7.00; against TEM-1, > 7.00; against KPC-2, 6.00 to 7.00; against OXA-2, 5.52 to 6.00.
Regarding `O=C(NOCC1CCC1)[C@@H]1CC[C@@H]2CN1C(=O)N2OS(=O)(=O)O` [Example 58, Sodium (2S,5R)—N-(cyclobutylmethoxy)-7-oxo-6-(sulfooxy)-1,6-diazabicyclo[3.2.1]octane-2-carboxamide], the pIC50 was > 7.00 at AmpC, > 7.00 at TEM-1, > 7.00 on KPC-2 and 6.00 to 7.00 at OXA-2.
As for `CC(C)(C)OC(=O)NCCONC(=O)[C@@H]1CC[C@@H]2CN1C(=O)N2OS(=O)(=O)O` [Example 60, Sodium tert-butyl {2-[({[(2S,5R)-7-oxo-6-(sulfooxy)-1,6-diazabicyclo[3.2.1]oct-2-yl]carbonyl}amino)oxy]ethyl}carbamate], the pIC50 at AmpC was 6.00 to 7.00; against TEM-1, > 7.00; against KPC-2 it was 6.00 to 7.00; on OXA-2, 6.00 to 7.00.
For the molecule `CNCCONC(=O)[C@@H]1CC[C@@H]2CN1C(=O)N2OS(=O)(=O)O` [Example 61, (2S,5R)—N-[2-(Methylamino)ethoxy]-7-oxo-6-(sulfooxy)-1,6-diazabicyclo[3.2.1]octane-2-carboxamide], the pIC50 against AmpC was 6.00 to 7.00; on TEM-1, > 7.00; against KPC-2, 5.52 to 6.00; on OXA-2 (setting [1]) it was 5.52 to 6.00.
As for `CCNCCONC(=O)[C@@H]1CC[C@@H]2CN1C(=O)N2OS(=O)(=O)O` [Example 62, (2S,5R)—N-[2-(Ethylamino)ethoxy]-7-oxo-6-(sulfooxy)-1,6-diazabicyclo[3.2.1]octane-2-carboxamide], the pIC50 is 6.00 to 7.00 on AmpC, > 7.00 on TEM-1, 6.00 to 7.00 at KPC-2 and 5.52 to 6.00 on OXA-2 (setting [1]).
`CCCNCCONC(=O)[C@@H]1CC[C@@H]2CN1C(=O)N2OS(=O)(=O)O` [Example 63, (2S,5R)-7-Oxo-N-[2-(propylamino)ethoxy]-6-(sulfooxy)-1,6-diazabicyclo[3.2.1]octane-2-carboxamide]: the pIC50 is 6.00 to 7.00 on AmpC, > 7.00 against TEM-1, 6.00 to 7.00 on KPC-2 and 5.52 to 6.00 at OXA-2 (setting [1]).
`CC(C)NCCONC(=O)[C@@H]1CC[C@@H]2CN1C(=O)N2OS(=O)(=O)O` [Example 64, (2S,5R)-7-Oxo-N-[2-(propan-2-ylamino)ethoxy]-6-(sulfooxy)-1,6-diazabicyclo[3.2.1]octane-2-carboxamide]: the pIC50 against AmpC is 6.00 to 7.00; on TEM-1, > 7.00; on KPC-2, 6.00 to 7.00; on OXA-2 (setting [1]), 5.52 to 6.00.
`CN(C)CCONC(=O)[C@@H]1CC[C@@H]2CN1C(=O)N2OS(=O)(=O)O` [Example 65, (2S,5R)—N-[2-(Dimethylamino)ethoxy]-7-oxo-6-(sulfooxy)-1,6-diazabicyclo[3.2.1]octane-2-carboxamide]: the pIC50 is 6.00 to 7.00 against AmpC, 6.00 to 7.00 against TEM-1, 5.52 to 6.00 at KPC-2 and 5.52 to 6.00 at OXA-2 (setting [1]).
With `C[C@H](N)CONC(=O)[C@@H]1CC[C@@H]2CN1C(=O)N2OS(=O)(=O)O` [Example 66, (2S,5R)—N-{[(2S)-2-Aminopropyl]oxy}-7-oxo-6-(sulfooxy)-1,6-diazabicyclo[3.2.1]octane-2-carboxamide], the pIC50 against AmpC was 6.00 to 7.00; against TEM-1, > 7.00; at KPC-2 it was 5.52 to 6.00; on OXA-2 (setting [1]), 5.52 to 6.00.
With `C[C@@H](N)CONC(=O)[C@@H]1CC[C@@H]2CN1C(=O)N2OS(=O)(=O)O` [Example 67, (2S,5R)—N-{[(2R)-2-Aminopropyl]oxy}-7-oxo-6-(sulfooxy)-1,6-diazabicyclo[3.2.1]octane-2-carboxamide], the pIC50 at AmpC was 6.00 to 7.00; on TEM-1, > 7.00; against KPC-2, 5.52 to 6.00; on OXA-2 (setting [1]), 5.52 to 6.00.
With `C[C@@H](CN)ONC(=O)[C@@H]1CC[C@@H]2CN1C(=O)N2OS(=O)(=O)O` [Example 68, (2S,5R)—N-{[(2S)-1-Aminopropan-2-yl]oxy}-7-oxo-6-(sulfooxy)-1,6-diazabicyclo[3.2.1]octane-2-carboxamide], the pIC50 was > 7.00 on AmpC, > 7.00 on TEM-1, 6.00 to 7.00 at KPC-2 and 5.52 to 6.00 at OXA-2 (setting [1]).
On to `NCCCONC(=O)[C@@H]1CC[C@@H]2CN1C(=O)N2OS(=O)(=O)O` [Example 69, (2S,5R)—N-(3-Aminopropoxy)-7-oxo-6-(sulfooxy)-1,6-diazabicyclo[3.2.1]octane-2-carboxamide], for which the pIC50 at AmpC was 6.00 to 7.00; against TEM-1, > 7.00; on KPC-2, 5.52 to 6.00; on OXA-2 (setting [1]), 6.00 to 7.00.
On to `O=C([C@@H]1CC[C@@H]2CN1C(=O)N2OS(=O)(=O)O)N1CCCO1` [Example 70, Sodium (2S,5R)-2-(1,2-oxazolidin-2-ylcarbonyl)-6-(sulfooxy)-1,6-diazabicyclo[3.2.1]octane-7-one], for which the pIC50 is 6.00 to 7.00 at AmpC, > 7.00 against TEM-1, 6.00 to 7.00 against KPC-2 and 6.00 to 7.00 against OXA-2.
As to `O=C(NOCCN1CCOCC1)[C@@H]1CC[C@@H]2CN1C(=O)N2OS(=O)(=O)O` [Example 72, Sodium (2S,5R)—N-[2-(morpholin-4-yl)ethoxy]-7-oxo-6-(sulfooxy)-1,6-diazabicyclo[3.2.1]octane-2-carboxamide], the pIC50 on AmpC is > 7.00; against TEM-1, > 7.00; against KPC-2, 6.00 to 7.00; against OXA-2 it was 6.00 to 7.00.
`O=C(NOCCN1CCCNCC1)[C@@H]1CC[C@@H]2CN1C(=O)N2OS(=O)(=O)O` [Example 74, (2S,5R)-7-Oxo-N-[2-(1,4-diazepan-1-yl)ethoxy]-6-(sulfooxy)-1,6-diazabicyclo[3.2.1]octane-2-carboxamide]: the pIC50 is > 7.00 at AmpC, > 7.00 at TEM-1, 6.00 to 7.00 at KPC-2 and 6.00 to 7.00 at OXA-2 (setting [1]).
Regarding `O=C(NOC[C@@H]1CCN1)[C@@H]1CC[C@@H]2CN1C(=O)N2OS(=O)(=O)O` [Example 75, (2S,5R)—N-[(2S)-Azetidin-2-ylmethoxy]-7-oxo-6-(sulfooxy)-1,6-diazabicyclo[3.2.1]octane-2-carboxamide], the pIC50 is 6.00 to 7.00 against AmpC, > 7.00 at TEM-1, 6.00 to 7.00 on KPC-2 and 5.52 to 6.00 on OXA-2 (setting [1]).
